Source: ChEMBL document CHEMBL5230154, “Chemical probe of AHL modulators on quorum sensing in Gram-Negative Bacteria and as antiproliferative agents: A review” (Eur J Med Chem, 2021)
Values belong to the compound of their own block, whether it stands above or below them.

Assays:
Pseudomonas aeruginosa [1] = assay: Antagonist activity against quorum sensing system in Pseudomonas aeruginosa PAO-JP2 (plasI-LVAgfp) assessed as inhibition of 3-oxo-C12 HSL induced GFP expression at 100 uM incubated for 6 hrs in presence of 1 uM of 3-oxo-C12 HSL by fluorescence analysis
[2] = Inhibition of quorum sensing system in Pseudomonas aeruginosa PA14 assessed as inhibition of pyocyanin production incubated for 17 hrs by spectrophotometric assay
Pseudomonas aeruginosa [3] = assay: Inhibition of quorum sensing system in Pseudomonas aeruginosa MH602 expressing PlasB::gfp assessed as inhibition of GFP fluorescence expression at 62.5 uM incubated for 15 hrs by fluorescence microplate reader analysis
Pseudomonas aeruginosa [4] = assay: Inhibition of quorum sensing system in Pseudomonas aeruginosa MH602 expressing PlasB::gfp assessed as inhibition of GFP fluorescence expression at 250 uM incubated for 15 hrs by fluorescence microplate reader analysis
[5] = Inhibition of quorum sensing system in Pseudomonas aeruginosa PAO1 assessed as inhibition of rhamnolipid production at 15 uM incubated for 12 hrs by spectrophotometric assay
[6] = Inhibition of quorum sensing system in Pseudomonas aeruginosa PAO1 assessed as decrease in pqsR expression at 15 uM incubated for 12 hrs by real-time fluorescent quantitative PCR analysis
[7] = Inhibition of quorum sensing system in Pseudomonas aeruginosa PAO1 assessed as decrease in lasI expression at 15 uM incubated for 12 hrs by real-time fluorescent quantitative PCR analysis
[8] = Inhibition of quorum sensing system in Pseudomonas aeruginosa PAO1 assessed as inhibition of pyocyanin production at 15 uM incubated for 12 hrs by spectrophotometric assay
[9] = Inhibition of quorum sensing system in Pseudomonas aeruginosa PAO1 assessed as decrease in lasA expression at 15 uM incubated for 12 hrs by real-time fluorescent quantitative PCR analysis
Pseudomonas aeruginosa [10] = assay: Inhibition of biofilm formation in Pseudomonas aeruginosa PAO1 incubated for 12 hrs by crystal violet staining based analysis; assay type: functional
[11] = target: T1, Transcriptional activator protein LasR (Pseudomonas aeruginosa (strain ATCC 15692 / PAO1 / 1C / PRS 101 / LMG12228)) (UniProt P25084); assay: Antagonist activity against LasR-mediated quorum sensing system in Pseudomonas aeruginosa PAO1 assessed as inhibition of pyocyanin production at 200 uM incubated for 13 hrs by spectrophotometric assay; details: filed as antagonist
T1 sequence (whole entry): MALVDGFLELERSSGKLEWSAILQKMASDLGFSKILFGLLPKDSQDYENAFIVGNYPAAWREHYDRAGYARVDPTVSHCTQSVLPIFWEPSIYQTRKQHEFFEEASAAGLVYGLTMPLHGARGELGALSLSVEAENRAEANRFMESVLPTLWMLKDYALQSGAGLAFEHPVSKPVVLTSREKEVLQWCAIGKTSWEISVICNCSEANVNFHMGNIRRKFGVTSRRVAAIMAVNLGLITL

[12] = Inhibition of quorum sensing system in Pseudomonas aeruginosa MW1 assessed as inhibition of LasR expression incubated for 8 to 12 hrs in presence of 3-oxo-C12 HSL by fluorescence analysis
[13] = Inhibition of quorum sensing system in Pseudomonas aeruginosa MW1 assessed as inhibition of LasR expression at 33 uM incubated for 8 to 12 hrs in presence of 3-oxo-C12 HSL by fluorescence analysis; details: time 8-12 hrs
[14] = target: T2, Transcriptional activator protein LuxR (Vibrio fischeri (strain ATCC 700601 / ES114), UniProt P35327); assay: Antagonist activity against LuxR mediated quorum sensing system in Vibrio fischeri ES114 expressing luxI assessed as decrease in luminescence intensity incubated for 4 to 8 hrs by bioluminescence analysis; design: species or system Aliivibrio fischeri
T2 sequence (P35327 whole entry): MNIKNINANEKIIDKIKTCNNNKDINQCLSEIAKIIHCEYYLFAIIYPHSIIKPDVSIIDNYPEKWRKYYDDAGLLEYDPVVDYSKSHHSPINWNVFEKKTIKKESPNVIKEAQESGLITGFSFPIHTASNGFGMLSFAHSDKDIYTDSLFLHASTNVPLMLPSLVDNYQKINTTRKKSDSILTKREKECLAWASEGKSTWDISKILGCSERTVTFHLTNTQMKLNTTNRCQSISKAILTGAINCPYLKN

[15] = Inhibition of quorum sensing system in Pseudomonas aeruginosa PAO1 assessed as decrease in rhlR expression at 15 uM incubated for 12 hrs by real-time fluorescent quantitative PCR analysis
[16] = Inhibition of quorum sensing system in Pseudomonas aeruginosa PAO1 assessed as inhibition of elastase production at 15 uM incubated for 12 hrs by Congo red dye based spectrophotometric assay
[17] = target: T3, Transcriptional activator protein LasR (Pseudomonas aeruginosa (strain ATCC 15692 / PAO1 / 1C / PRS 101 / LMG12228), UniProt P25084); assay: Antagonist activity against LasR-mediated quorum sensing system in Pseudomonas aeruginosa PAO1 by spectrophotometric assay
T3 sequence (P25084 whole entry): T1 sequence (whole entry)

Pseudomonas aeruginosa [18] = assay: Inhibition of Pseudomonas aeruginosa MH602 harboring PlasB::gfp(ASV) reporter assessed as decrease in GFP expression at 125 uM incubated for 22 hrs by fluorescence microplate reader analysis
Pseudomonas aeruginosa [19] = assay: Inhibition of Pseudomonas aeruginosa MH602 harboring PlasB::gfp(ASV) reporter assessed as decrease in GFP expression at 250 uM incubated for 22 hrs by fluorescence microplate reader analysis
[20] = Inhibition of quorum sensing system in Pseudomonas aeruginosa PAO1 assessed as inhibition of pyocyanin production at 250 uM incubated for 17 hrs by spectrophotometric analysis
[21] = Inhibition of quorum sensing system in Pseudomonas aeruginosa PAO1 assessed as inhibition of pyocyanin production at 32 uM incubated for 17 hrs by spectrophotometric analysis
[22] = target: T4, HTH-type quorum-sensing regulator RhlR (Pseudomonas aeruginosa (strain ATCC 15692 / PAO1 / 1C / PRS 101 / LMG12228), UniProt P54292); assay: Agonist activity against RhlR in Pseudomonas aeruginosa PAO-JP2 expressing prhlI-LVAgfp using CPRG as substrate by spectrophotometric assay
T4 sequence (P54292 whole entry): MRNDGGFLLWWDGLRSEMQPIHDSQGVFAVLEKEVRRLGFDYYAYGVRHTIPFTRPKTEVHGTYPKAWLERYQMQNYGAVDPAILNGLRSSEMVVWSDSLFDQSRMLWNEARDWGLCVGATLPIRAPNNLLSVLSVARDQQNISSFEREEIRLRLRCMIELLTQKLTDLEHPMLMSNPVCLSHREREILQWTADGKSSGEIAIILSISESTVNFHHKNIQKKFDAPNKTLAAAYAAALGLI

[23] = Agonist activity against RhlR in Escherichia coli expressing JLD271/pJN105R2/pSC11-rhlI using CPRG as substrate by spectrophotometric assay
[24] = Cytotoxicity against human PBMC cells assessed as reduction in cell viability at 100 uM by MTT assay; assay type: toxicity, cell-based

SMILES: CCCCCCCCCCCC(=O)NC1CCCCC1=O (centres undefined)
inhibition (Pseudomonas aeruginosa [1]): 30%

SMILES: O=C1C(Cl)=C(Cl)CN1CCc1ccc(O)cc1
inhibition (Pseudomonas aeruginosa [3]): 32.1%
inhibition (Pseudomonas aeruginosa [4]): 74%

SMILES: CC1=C(Br)/C(=C(\C)Br)OC1=O
inhibition [15]: 58.8%
inhibition [5]: 25.8%
inhibition [6]: 45%
inhibition [7]: 26.9%
inhibition [16]: 16.5%
inhibition [8]: 31.6%
IC50 [17]: 17.4 µM
inhibition (INH) (Pseudomonas aeruginosa [10]): 28.6%

SMILES: O=C1C(=O)N(C(=O)CCl)c2ccccc21
inhibition (Pseudomonas aeruginosa [18]): 34.7%
inhibition (Pseudomonas aeruginosa [19]): 60.1%

SMILES: CC(C)CCCC(=O)N[C@H]1CCOC1=O
EC50 [22]: 1.02 µM
EC50 [23]: 1.42 µM

SMILES: CCCCC(=O)N[C@H]1CCSC1=O
EC50 [22]: 3.82 µM
EC50 [23]: 4.87 µM

SMILES: O=C(CCCNc1ccc(F)cc1)NC1CCOC1=O (centres undefined)
Activity [24]: 49.2%

SMILES: O=C1C(Cl)=C(Cl)CN1c1ccccc1
inhibition [20]: 90%
inhibition (Pseudomonas aeruginosa [4]): 81.7%
inhibition [21]: 80%

Second part, led by results:

IC50 [2]: 8 µM
SMILES: O=C(CCCOc1cccc(Br)c1)NC1CCSC1=O (centres undefined)

inhibition [5]: 17.6%
inhibition [6]: 53.5%
inhibition [7]: 47.9%
inhibition [8]: 27.5%
inhibition [9]: 58.5%
SMILES: O=C(CCSc1ccc(Cl)cc1)N[C@H]1CCOC1=O
inhibition (INH) (Pseudomonas aeruginosa [10]): 34.1%

inhibition [11]: 93%
SMILES: CCCCCCCCCC(=O)CC(=O)Nc1cccc(OC)c1

IC50 [12]: 10 µM
inhibition [13]: 75%
SMILES: CCCCCCCCCNC(=O)CC(=O)c1ccccc1

IC50 [14]: 0.6 µM
SMILES: O=C(Cc1ccccc1)N[C@H]1CCOC1=O

inhibition [20]: 90%
inhibition (Pseudomonas aeruginosa [4]): 80.4%
inhibition [21]: 80%
SMILES: Nc1cccc(N2CC(Cl)=C(Cl)C2=O)c1

IC50 [14]: 0.6 µM
SMILES: O=C(Cc1ccc(Cl)cc1)N[C@H]1CCOC1=O

inhibition [11]: 67%
SMILES: CCCCCCCCCC(=O)CC(=O)Nc1cccc(I)c1

inhibition [15]: 48.4%
inhibition [5]: 28.1%
inhibition [6]: 72.5%
inhibition [7]: 55.1%
inhibition [16]: 13.7%
inhibition [8]: 34.5%
inhibition [9]: 64.1%
SMILES: Cc1cccc(NC(=O)NC(=O)CSC(=S)N[C@H]2CCOC2=O)c1
inhibition (INH) (Pseudomonas aeruginosa [10]): 36.2%

IC50 [14]: 0.6 µM
SMILES: O=C(Cc1ccc(I)cc1)N[C@H]1CCOC1=O

inhibition [20]: 90%
inhibition (Pseudomonas aeruginosa [4]): 78%
inhibition [21]: 80%
SMILES: O=C1C(Cl)=C(Cl)CN1c1cccc(O)c1
